For five compounds, IC50 results are on record in patent publication US20260193271A1, “PAN-KRAS INHIBITOR COMPOUND” (ADLAI NORTYE BIOPHARMA CO., LTD., priority 2022, published 2026).

For one test, the system named is AsPC-1 (G12D). The test can be described thus: In vitro cell proliferation inhibition test (CellTiter-Glo), AsPC-1. The format is cell-based. The following applies: Homo sapiens, ASPC1, AsPC-1 pancreas cell line, KRAS (p.G12D), 72 h co-incubation. A digest of the protocol:
(§1)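 IC50 was derived by four-parameter fitting of normalized CellTiter-Glo signals. These were measured after 72 h co-incubation with compound at 10 concentrations, 3-fold serial, final maximum 10 μM. Plating was 1000-5000 cells/well, adjusted to growth rate, with overnight attachment at 37 °C, 5% CO2.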

The next test concerns SW480 (G12V). The test can be described thus: In vitro cell proliferation inhibition test (CellTiter-Glo), SW480. The format is cell-based. The following applies: Homo sapiens, SW480 colon cell line, KRAS (p.G12V), 72 h co-incubation. The method in brief:
as §1
In general terms: In ATP-based viability assays light output follows the ATP content of the culture.

For orientation: IC50 means the midpoint of a concentration-inhibition curve. As to `CCn1c(-c2cc(-c3ccc(=O)n(CCN4CCOCC4)c3)cnc2[C@H](C)OC)c2c3cc(ccc31)-c1csc(n1)C[C@H](NC(=O)[C@H]1C[C@@H]1C)C(=O)N1CCC[C@H](N1)C(=O)OCC(C)(C)C2` (atropisomer, axis not shown) [Compound 40, (1S,2S)-N-((6^3S,4S,Z)-1^1-ethyl-1^2-(6-((S)-1-methoxyethyl)-1′-(2-morpholinoethyl)-6′-oxo-1′,6′-dihydro-[3,3′-bipyridin]-5-yl)-10,10-dimethyl-5,7-dioxo-6^1,6^2,6^3,6^4,6^5,6^6-hexahydro-1^1H-8-oxa-2(4,2)-thiazola-1(5,3)-indola-6(1,3)-pyridazinacycloundecaphane-4-yl)-2-methylcyclopropane-1-carboxamide], the half-inhibitory concentration (IC50) came to 9.2 nM in the test with AsPC-1 (G12D) and 10 nM with SW480 (G12V).
The matching figures for `CCn1c(-c2cc(-c3ccc(CN4CCN(C)CC4)cn3)cnc2[C@H](C)OC)c2c3cc(ccc31)-c1csc(n1)C[C@H](NC(=O)[C@H]1C[C@@H]1C)C(=O)N1CCC[C@H](N1)C(=O)OCC(C)(C)C2` (atropisomer, axis not shown) [Compound 41, (1S,2S)-N-((6^3S,4S,Z)-1^1-ethyl-1^2-(6′-((S)-1-methoxyethyl)-5-((4-methylpiperazin-1-yl)methyl)-[2,3′-bipyridin]-5′-yl)-10,10-dimethyl-5,7-dioxo-6^1,6^2,6^3,6^4,6^5,6^6-hexahydro-1^1H-8-oxa-2(4,2)-thiazola-1(5,3)-indola-6(1,3)-pyridazinacycloundecaphane-4-yl)-2-methylcyclopropane-1-carboxamide]: 2.6 nM and 3.7 nM.
For the compound `CCn1c(-c2cc(-c3cncc(CN4CCS(=N)(=O)CC4)c3)cnc2[C@H](C)OC)c2c3cc(ccc31)-c1csc(n1)C[C@H](NC(=O)[C@H]1[C@H](C)[C@@H]1C)C(=O)N1CCC[C@H](N1)C(=O)OCC(C)(C)C2` (atropisomer, axis not shown) [Compound 42, (1r,2R,3S)-N-((6^3S,4S,Z)-1^1-ethyl-1^2-(5′-((1-imino-1-oxido-16-thiomorpholino)methyl)-6-((S)-1-methoxyethyl)-[3,3′-bipyridin]-5-yl)-10,10-dimethyl-5,7-dioxo-6^1,6^2,6^3,6^4,6^5,6^6-hexahydro-1^1H-8-oxa-2(4,2)-thiazola-1(5,3)-indola-6(1,3)-pyridazinacycloundecaphane-4-yl)-2,3-dimethylcyclopropane-1-carboxamide], the results for the IC50 in the test on AsPC-1 (G12D) and in the test on SW480 (G12V) were 3 nM and 3.5 nM, respectively.
The like results for `CCn1c(-c2cc(-c3cc4c(cn3)CN(C)C4)cnc2[C@H](C)OC)c2c3cc(ccc31)-c1csc(n1)C[C@H](NC(=O)[C@H]1C[C@@H]1C)C(=O)N1CCC[C@H](N1)C(=O)OCC(C)(C)C2` (atropisomer, axis not shown) [Compound 43, (1S,2S)-N-((6^3S,4S,Z)-1^1-ethyl-1^2-(2-((S)-1-methoxyethyl)-5-(2-methyl-2,3-dihydro-1H-pyrrolo[3,4-c]pyridin-6-yl)pyridin-3-yl)-10,10-dimethyl-5,7-dioxo-6^1,6^2,6^3,6^4,6^5,6^6-hexahydro-1^1H-8-oxa-2(4,2)-thiazola-1(5,3)-indola-6(1,3)-pyridazinacycloundecaphane-4-yl)-2-methylcyclopropane-1-carboxamide] were, in that order, 17 nM and 3.8 nM.
The like results for `CO[C@@H](C)c1ncc(-c2cnc(CN3CCOCC3)nc2)cc1-c1c2c3cc(ccc3n1CC(F)(F)F)-c1csc(n1)C[C@H](NC(=O)[C@H]1[C@H](C)[C@@H]1C)C(=O)N1CCC[C@H](N1)C(=O)OCC(C)(C)C2` (atropisomer, axis not shown) [Compound 44, (1r,2R,3S)-N-((6^3S,4S,Z)-1^2-(2-((S)-1-methoxyethyl)-5-(2-(morpholinomethyl)pyrimidin-5-yl)pyridin-3-yl)-10,10-dimethyl-5,7-dioxo-1^1-(2,2,2-trifluoroethyl)-6^1,6^2,6^3,6^4,6^5,6^6-hexahydro-1^1H-8-oxa-2(4,2)-thiazola-1(5,3)-indola-6(1,3)-pyridazinacycloundecaphane-4-yl)-2,3-dimethylcyclopropane-1-carboxamide] were, in that order, 0.26 nM and 0.35 nM.
